The test system of test [1] is Swedish APP695 transgenic HEK293 cells. Description: Aβ1-40 (Sw) bioassay (ELISA of Aβ1-40 in cell supernatant). To be noted: for % reduction of Aβ1-40 secretion: Swedish APP695 transgenic HEK293 cells, ELISA; for IC50: Homo sapiens, HEK293, concentration that reduces Aβ1-40 secretion to 50 %, read-out: IC50 Aβ1-40(sw) bioassay (cell-based). It is filed as cell-based. The text has this: (§1) The tests performed were • a) Aβ1-40 (Sw) bioassay, which measures the amount of the amyoid peptide Aβ1-40 in the supernatant of Swedish APP695 transgenic HEK293 cells in the presence of the various BACE inhibitors via ELISA (enzyme-linked immunosorbent assay). In the table, the inhibitory concentration that reduces Aβ1-40 secretion to 50 % is indicated (IC50), or the % reduction of Aβ1-40 secretion at the indicated concentration. • b) FRET assay, which measures the activity of recombinant BACE enzyme in the presence of the various BACE inhibitors via a FRET (fluorescence resonance energy transfer)-based readout. In the table, the inhibitory concentration that reduces the activity of BACE to 50 % is indicated (IC50), or the % reduction of the activity of BACE at the indicated concentration. • c) An additional in silico test was performed for the compounds listed in Tables 1 to 3. The compounds were docked with the FFLD approach (Budin et al., Biol. Chem. 382, 1365-1372, 2001) and their binding energy was evaluated with the LIECE method (Huang and Caflisch, J. Med. Chem. 47, 5791-5797, 2004). The affinity evaluated with LIECE is in the low micromolar range for most of these compounds.
On the technique in general: An ELISA detects its analyte on a solid surface through an enzyme-linked reagent.

A further test deals with recombinant BACE enzyme (Homo sapiens, UniProt P56817). Description: BACE FRET assay (in vitro). Format: biochemical. Conditions: concentration that reduces the activity of BACE to 50 %.
Description: as §1

Chain of recombinant BACE enzyme (P56817 46-501, species assumed): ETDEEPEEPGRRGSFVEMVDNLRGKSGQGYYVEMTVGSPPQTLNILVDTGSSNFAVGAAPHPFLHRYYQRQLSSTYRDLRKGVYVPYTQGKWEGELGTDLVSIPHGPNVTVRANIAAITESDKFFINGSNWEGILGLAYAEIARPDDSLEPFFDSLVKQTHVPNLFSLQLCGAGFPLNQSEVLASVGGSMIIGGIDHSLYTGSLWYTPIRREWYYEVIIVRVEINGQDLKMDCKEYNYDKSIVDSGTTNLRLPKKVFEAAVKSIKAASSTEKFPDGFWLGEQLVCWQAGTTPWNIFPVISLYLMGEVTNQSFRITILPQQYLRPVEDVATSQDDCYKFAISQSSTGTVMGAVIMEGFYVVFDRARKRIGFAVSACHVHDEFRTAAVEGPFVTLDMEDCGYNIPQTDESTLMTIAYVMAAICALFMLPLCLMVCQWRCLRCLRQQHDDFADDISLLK

The IC50 is the concentration that inhibits the measured activity by half. Consider `Oc1c(I)cc(I)cc1/C=N/Nc1nc(Nc2ccccc2)nc(Nc2ccccc2)n1` [Compound 201G06], for which, in test [1] (at 5 µM), the “% reduction of Aβ1-40 secretion” value is on record as “No (5 µM)”. On recombinant BACE enzyme, the IC50 was determined as 25.5 µM.
Regarding `Oc1c(Br)cc(Br)cc1/C=N/Nc1nc(Nc2ccccc2)nc(N2CCCC2)n1` [Compound 251B07], at recombinant BACE enzyme, the IC50 is 45.4 µM.
As to `Oc1c(Br)cc(/C=N/Nc2nc(N3CCCCC3)nc(N3CCCCC3)n2)c(O)c1Br` [Compound 251G09], on recombinant BACE enzyme, the IC50 turned out to be 170 µM.
For the compound `Cc1ccc(C)c(Nc2nc(N/N=C/c3cc(Br)c(O)c(Br)c3O)nc(N3CCOCC3)n2)c1` [Compound 205A04], the “% reduction of Aβ1-40 secretion” value in test [1] (at 5 µM) is given as “No (5 µM)”. Besides, the IC50 on recombinant BACE enzyme came to 81.8 µM.
In the case of `Clc1ccccc1-c1ccc(/C=N/Nc2nc(Nc3ccccc3)nc(Nc3ccccc3)n2)o1` [Compound 251F09], on recombinant BACE enzyme, the IC50 came to 188 µM.
In the case of `CNc1nc(N/N=C/c2ccc(-c3ccc([N+](=O)[O-])cc3)o2)nc(Nc2ccccc2)n1` [Compound 251C08], on recombinant BACE enzyme, the IC50 was 24.4 µM.
Consider `Cc1ccc(Nc2nc(N/N=C/c3cc(Br)cc(Br)c3O)nc(N3CCOCC3)n2)cc1Cl` [Compound 206E02], for which, in test [1] (at 50 µM), the “% reduction of Aβ1-40 secretion” value is 27% (50 µM). In addition, the IC50 on recombinant BACE enzyme came to 20.6 µM.
Turning to `O=C(O)c1cc(-c2ccc(C=NNc3nc(Nc4ccc(F)cc4)nc(N4CCCCC4)n3)o2)ccc1O` [Compound 250B05], the IC50 in test [1] is 10 to 20 µM; at recombinant BACE enzyme it was 30.9 µM.
Take `Oc1c(Br)cc(/C=N/Nc2nc(Nc3ccccc3)nc(Nc3ccccc3)n2)cc1Br` [Compound 202E09]: the “% reduction of Aβ1-40 secretion” value in test [1] (at 5 µM) is recorded as 25% (5 µM). Moreover, on recombinant BACE enzyme, the IC50 is 53.9 µM.
Regarding `COc1ccc(Nc2nc(N/N=C/c3cc(Br)cc(Br)c3O)nc(N3CCOCC3)n2)cc1` [Compound 251A09], the half-inhibitory concentration (IC50) on recombinant BACE enzyme was 34.4 µM.
For `O=C(O)c1cc(-c2ccc(/C=N/Nc3nc(Nc4ccccc4)nc(N4CCCCC4)n3)o2)ccc1Cl` [Compound 250A05], the IC50 in test [1] was 10 to 20 µM; at recombinant BACE enzyme it was 142 µM.
As for `Oc1c(Cl)cc(Br)cc1/C=N/Nc1nc(Nc2ccccc2)nc(Nc2ccccc2)n1` [Compound 201G11], the “% reduction of Aβ1-40 secretion” value in test [1] (at 5 µM) was 26% (5 µM). For the same compound, the IC50 at recombinant BACE enzyme came out at 11.9 µM.
Regarding `Cc1ccc(Nc2nc(N/N=C/c3cc(Br)cc(Br)c3O)nc(N3CCOCC3)n2)cc1` [Compound 205C07], in test [1] (at 50 µM), the “% reduction of Aβ1-40 secretion” value is given as “No (50 µM)”. Further, the half-maximal inhibitory concentration (IC50) at recombinant BACE enzyme worked out at 48.1 µM.
For `O=C(O)c1cc(-c2ccc(C=NNc3nc(Nc4ccc(F)cc4)nc(N4CCOCC4)n3)o2)ccc1Cl` [Compound 250C04], in test [1] (at 25 µM), the “% reduction of Aβ1-40 secretion” value is 0 (25 µM). The IC50 at recombinant BACE enzyme was 7.1 µM.
In the case of `Cc1ccc(Cl)cc1-c1ccc(/C=N/Nc2nc(N3CCOCC3)nc(N3CCOCC3)n2)o1` [Compound 251C10], the IC50 on recombinant BACE enzyme is more than 100 µM.
Take `COc1ccc(Nc2nc(NN=Cc3ccc(-c4cccc(C(=O)O)c4)o3)nc(Nc3ccccc3)n2)cc1` [Compound 250B04]: the IC50 in test [1] was 10 to 20 µM; on recombinant BACE enzyme, 66.6 µM.
Regarding `Oc1c(Cl)cc(Cl)cc1/C=N/Nc1nc(Nc2ccccc2)nc(Nc2ccccc2)n1` [Compound 201C08], in test [1] (at 5 µM), the “% reduction of Aβ1-40 secretion” value is reported as 25% (5 µM). Also, the half-inhibitory concentration (IC50) at recombinant BACE enzyme is 11.2 µM.
On to `Oc1c(Br)cc(Br)cc1/C=N/Nc1nc(Nc2ccccc2)nc(Nc2ccccc2)n1` [Compound 251A07], for which the IC50 on recombinant BACE enzyme stood at 10.6 µM.
The same measure, in the same setting: with `O=[N+]([O-])c1cc(-c2ccc(/C=N/Nc3nc(N4CCOCC4)nc(N4CCOCC4)n3)o2)ccc1Cl` [Compound 251A10] the figure was 124 µM.

The record behind these values is patent EP1790345A1, “Triazin beta-secretase inhibitors” (Esbatech AG, priority 2005, dated 2007).
